Measured values reported in patent publication US20230277508A1, “USE OF COMPOUND AS CYP2E1 INHIBITOR” (SHANGHAI LING XI BIOTECHNOLOGY DEVELOPMENT CO., LTD., priority 2020, published 2023).
pIC50: −log10 of the molar value.

Legend:
[1] = system: LPS-induced sepsis in mice; assay: LPS-induced mouse sepsis model; type: in vivo; conditions: vs model group
Protocol: Mice: A mouse sepsis model was constructed through single intraperitoneal injection of LPS (15 mg/kg). 30 min before LPS administration, mice in the model group were administered with NS (0.5 mL/kg, i.g.), mice in the positive control group were administered with celecoxib (5 mg/kg, i.g.), and mice in the CYP2E1 inhibition group were administered with the compound SMI0 (90 mg/kg, i.g.). A body temperature of each mouse was measured and recorded at 6 h, 12 h, and 24 h after LPS administration, and the body temperature was measured […] in total throughout the experimental process. The animals were sacrificed at 24 h, blood samples were collected, and renal and cardiac function-associated indexes were determined (control group, n=8 mice; model group, n=8 mice; celecoxib group, n=8 mice; and SMI0 compound group, n=10 mice).

[2] = system: DEN-induced liver fibrosis in rats; assay: DEN-induced rat liver fibrosis model; type: in vivo, SD rat; conditions: 12 weeks, vs model group
Protocol: Experimental method: An SD rat liver damage model was constructed through intermittent intraperitoneal injection of DEN. A model group was injected intraperitoneally with DEN at 50 mg/kg twice a week in the first 4 weeks and then once a week in the 5th to 12th weeks. An SMI0 intervention group was divided into SMI0+DEN low-dose and high-dose groups and an SMI0 high-dose continuous administration group, where the SMI0+DEN low-dose and high-dose groups were intragastrically administered with the compound SMI0 at 30 mg/kg and 150 mg/kg 5 min before DEN administration each time, respectively; and the SMI0 high-dose continuous administration group was intragastrically administered with the compound SMI0 at 150 mg/kg every day from the 1st week to the 12th week. At the end of molding, blood was collected from the orbit, and plasma liver function indexes of rats were determined by an automatic biochemical analyzer (model group, n=10 rats; SMI0 compound low-dose group, n=21 rats; SMI0 compound+DEN high-dose group, n=28 rats; and SMI0 compound high-dose continuous administration group, n=24 rats).

[3] = system: liver steatosis and hepatitis in mice caused by a high-fat diet; assay: Mouse liver steatosis and hepatitis model induced by a high-fat diet; type: in vivo, C57/6J mice; conditions: 22 weeks, vs model group
Protocol: Experimental method: Healthy male C57/6J mice were fed with a high-fructose, high-fat, and high-cholesterol feed to prepare mouse liver steatosis and hepatitis models, and a control group was fed with a low-fat and low-sugar control feed. An SMI0 intervention group was divided into a low-dose intervention group and a high-dose intervention group, which were intragastrically administered with the compound SMI0 at 30 mg/kg and 150 mg/kg every day from the beginning of modeling to the 22nd week of modeling. At the end of the 22-week experiment, blood was collected from the orbit, a body weight was measured, and then the mice each were sacrificed. The weight and appearance of a liver (color, texture, and presence or absence of nodules of the liver) were recorded. Some liver specimens were subjected to HE staining and then observed, and a steatosis score of mice in each group was recorded; and Masson staining was conducted to evaluate a liver fibrosis status of mice, and an oil red O staining area percentage and an LCA staining inflammation score were determined (model group, n=8 mice; SMI0 compound low-dose group, […]).
The pathological results of HE staining of a liver tissue were subjected to quantitative scoring based on the following criteria to determine a steatosis severity:
The pathological results of Masson staining of a liver tissue were subjected to quantitative scoring based on the following criteria to determine a fibrosis severity: […]

[4] = molecular target: T1, human liver microsome CYP2E1 (Homo sapiens, UniProt P05181); assay: Determination of IC50 for a CYP2E1 inhibitory effect (CZX probe, mixed liver microsome); type: biochemical; conditions: mixed liver microsome of healthy individuals 0.3 mg/mL, 62.5 μM CZX, 1 mM NADPH, 30 min; read-out: IC50 for 2E1 inhibition
T1 construct: metabolic activity of a mixed liver microsome CYP2E1 of a healthy individual; from tissue; host or cells: mixed (pooled) human liver microsomes of healthy individuals
T1 sequence (P05181 whole entry): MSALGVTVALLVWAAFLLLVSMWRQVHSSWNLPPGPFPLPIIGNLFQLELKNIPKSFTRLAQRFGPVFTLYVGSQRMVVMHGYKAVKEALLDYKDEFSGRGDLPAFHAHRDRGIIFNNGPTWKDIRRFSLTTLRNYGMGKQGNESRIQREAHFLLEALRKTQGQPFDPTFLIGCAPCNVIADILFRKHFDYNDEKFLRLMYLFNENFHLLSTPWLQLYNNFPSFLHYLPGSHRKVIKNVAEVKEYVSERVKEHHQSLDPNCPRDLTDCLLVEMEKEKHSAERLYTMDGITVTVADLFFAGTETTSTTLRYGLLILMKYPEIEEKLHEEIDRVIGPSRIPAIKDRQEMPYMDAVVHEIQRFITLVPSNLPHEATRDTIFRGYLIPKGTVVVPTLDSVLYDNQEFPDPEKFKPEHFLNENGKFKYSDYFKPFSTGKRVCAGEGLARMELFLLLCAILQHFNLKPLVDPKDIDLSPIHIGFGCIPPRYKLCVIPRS
Protocol: CZX was used as a probe substrate to detect an inhibitory effect of an inhibitor to be tested on the metabolic activity of a mixed liver microsome CYP2E1 of a healthy individual (IC50: half inhibition concentration; Ki: inhibition constant; the smaller the IC50 and the smaller the Ki, the higher the inhibition intensity of the inhibitor), thereby determining an inhibitory effect of the inhibitor to be tested on the human liver microsome CYP2E1.
An incubation system in a total volume of 100 μL was adopted, including a substrate, an inhibitor of different concentrations, a liver microsomal protein, and phosphate-buffered saline (PBS). The incubation system was pre-incubated in a 37° C. water bath for 5 min, reduced coenzyme was added to allow a reaction for 30 min, and then the reaction was terminated in an ice bath. In a specific experiment, a concentration of an inhibitor can be selected as required.
In this example, the incubation system includes 62.5 μM CZX, 100 mM (pH=7.4) PBS, 0.3 mg/mL liver microsomal protein, and 1 mM NADPH.
In this example, the reaction is terminated with 1 mL of ethyl acetate. In other preferred examples, the reaction may also be terminated with 1 mL of methyl tert-butyl ether (MTBE), 1 mL of diethyl ether, or 100 μL of methanol.

[5] = SMI0 high-dose 150 mg/kg ig daily
[6] = SMI0 low-dose 30 mg/kg ig daily

**Q.** Which results are given for `CC(=O)c1scnc1C` [SMI0]?
**A.** decrease in body temperature in the LPS-induced sepsis mouse model ([1]; SMI0 90 mg/kg ig 30 min before LPS 15 mg/kg ip, 6 h, 12 h, 24 h): avoided; levels of renal and cardiac function-associated indexes (urea nitrogen, creatinine, CK, LDH) ([1]; serum at 24 h, SMI0 90 mg/kg ig): significantly reduced; liver coefficient ([2]; SMI0 intervention group (30, 150 mg/kg before DEN; 150 mg/kg daily)): reduced to varying degrees; Collagen I ([2]; SMI0 intervention group): reduced to varying degrees; liver fibrosis Ishark score ([2]; SMI0 intervention group): reduced to varying degrees; liver fibrosis Masson staining area percentage ([2]; SMI0 intervention group): reduced to varying degrees; α-SMA ([2]; SMI0 intervention group): reduced to varying degrees; liver inflammation level (number of LCA-positive cell staining foci) [3, 5]: significantly reduced; oil red O staining area percentage [3, 5]: significantly reduced; steatosis score [3, 5]: significantly reduced; liver coefficient [3, 6]: significantly reduced; oil red O staining area percentage [3, 6]: significantly reduced; steatosis score [3, 6]: significantly reduced; pIC50 [4]: 5.79
